The source of these data is patent US20210196714A1, “COMPOSITIONS AND METHODS FOR TREATING DISORDERS CHARACTERIZED WITH ABERRANT RAS/MAPK SIGNALING” (Duke University, priority 2018, published 2021).

The subject of assay [1] is zebrafish kmt2d morphants. The assay can be described thus: Rescue of convergent-extension (CE) phenotype in kmt2d morphants. It is filed as in vivo. The conditions noted are these: 100 nM; for rescue of CE defects, repeated experiments: repeated four times by two investigators; for proportion of embryos showing CE defects vs vehicle (DMSO): primary screen, kmt2d-MO, 8-10 somite stage. On the procedure:
FIG. 1: In vivo screen using BRAF/MEK/ERK inhibitors. (a) Flow chart of the experimental design. We started the screening with 29 compounds (27 active BRAF/MEK/ERK inhibitors, and 2 negative controls). 26 compounds passed the solubility test and 24 of those passed the toxicity test. For the primary screen, 24 compounds were assessed for their ability to rescue the convergent-extension (CE) phenotype of zebrafish kmt2d morphants, followed by rescue tests of additional phenotypes (jaw and brain) within the kmt2d morphant, or CE of additional genetic KS models. (b) Toxicity results. Twenty embryos at the 8-cell stage were incubated in egg water containing 100 nM, 1 μM, and 10 μM of the 26 compounds. After 24 hours, larvae were scored for toxicity. Black bar: death; grey bar: abnormal morphology; white bar: nontoxic. (c) Embryos were injected with kmt2d-MO at the 2-4 cell stage and soaked in egg water containing 100 nM of each compound at the 8-cell stage. After 24 hours, larvae were scored for CE. […] The efficacy of each compound was determined by a chi-square test in which Class I and Class II were considered together. Note that the compounds were tested in two groups (compounds 1-19 and compounds 20-29), each with its own set of controls.
This library was screened against validated transient suppression reagent for kmt2d. Experiments injected kmt2d-morpholino (MO) into one- to two-cell-stage embryos and soaked them in egg water containing 100 nM of each compound approximately one hour after injection (eight-cell stage).
Morpholinos (MO) were obtained from Gene Tools (Gene Tools, LLC, Philomath, Oreg., USA) and have been described previously (see, Bogershausen, N. et al. J Clin Invest 125, 3585-99 (2015)); kmt2d-MO: 5′-[…]-3′(SEQ ID NO: 1) (5 ng); kdm6a-MO: 5′-[…] (SEQ ID NO: 2) (10 ng). kmt2d-MO and kdm6a-MO was injected into wild type (WT) Ekkwill (EK) zebrafish embryos obtained from natural matings at the 1-4 cell stage. CRISPR target sequences (rap1a: 5′-[…]-3′ (SEQ ID NO: 3) [120 pg], rap1b: 5′-[…]-3′ (SEQ ID NO: 4) [120 pg] (see, Bogershausen, N. et al. J Clin Invest 125, 3585-99 (2015)), and kmt2d: 5′-[…] (SEQ ID NO: 5) [50 pg]) were identified by crispr.mit.edu and cloned into pT7-gRNA (Addgene, Cambridge, USA) following the protocol described in http://www.addgene.org/crispr/Chen/. Guide (g)RNAs were synthesized using the T7 MEGAshortscript kit (ThermoFisher Scientific). […]
For convergence and extension (CE) phenotyping, embryos were scored as described (see, Leitch, C. C. et al. Nat Genet 40, 443-8 (2008)) at the 8-10 somite stage, and images were captured using an AZ100 microscope and NIS Elements software (Nikon). […] The distance between Meckel's (MK) and ceratohyal (CH) cartilages was measured on ventral bright field images with Image J (NIH). […]

The next assay concerns rap1-CRISPR embryos. The assay can be described thus: Jaw defect (MK-CH distance) in rap1-CRISPR embryos. The class given is in vivo, zebrafish. The conditions noted are these: rap1 F0 CRISPR mutant, 100 nM, 5 dpf. The procedure:
FIG. 4: Compound 8 ameliorates the CE and jaw defects caused by loss of rap/and kdm6a. (a) gRNA targeting both zebrafish rap1a and rap1b were injected into embryos at the 1-cell stage with Cas9 protein. Larvae were incubated with compound 8 (100 nM) at the 8-cell stage and scored for micrognathia. 5 dpf larvae were stained with Alcian blue to assess the layout of the jaw cartilage. In comparison to control embryos (top), rap1-CRISPR embryos have smaller jaws. […] (b) Quantitative measurement of the distance between MK and CH cartilages. (c) Larvae were scored for CE (n>30 for each concentration). (d) 5 dpf embryos were stained with Alcian blue to assess the layout of jaw cartilage. […] (e) Quantitative measurement of the distance between MK and CH cartilages. *p<0.05; ***p<0.001. […]
For convergence and extension (CE) phenotyping, embryos were scored as described (see, Leitch, C. C. et al. Nat Genet 40, 443-8 (2008)) at the 8-10 somite stage, and images were captured using an AZ100 microscope and NIS Elements software (Nikon). […] The distance between Meckel's (MK) and ceratohyal (CH) cartilages was measured on ventral bright field images with Image J (NIH). […] Fluorescence signal on embryo heads was imaged with the Nikon AZ100 microscope and DS-Qi1MC digital camera using […] Z-stacks to generate extended depth of focus images. Cell numbers were quantified using the ImageJ ICTN plugin (NIH). […]

“Also recorded” adds a separate entry of the source.

With `CC[C@@H](CO)Nc1ncc(C)c(-c2c[nH]c(C(=O)N[C@H](CO)c3cccc(Cl)c3)c2)n1` [Compound 2, N-((S)-1-(3-chlorophenyl)-2-hydroxyethyl)-4-(2-(((S)-1-hydroxybutan-2-yl)amino)-5-methylpyrimidin-4-yl)-1H-pyrrole-2-carboxamide], in assay [1], the “rescue of CE defects, repeated experiments” value is “rescue CE defects; also recorded: consistent and significant rescue”; the “proportion of embryos showing CE defects vs vehicle (DMSO)” value is on record as “decreased the proportion of embryos showing CE defects”. Moreover, the “jaw length / MK-CH distance” value in the assay on rap1-CRISPR embryos is “can be ameliorated; also recorded: restored significantly the jaw length of morphants and mutants to nearly wild type levels”.

As for `CC(C)c1nc(-c2cccc(NS(=O)(=O)c3c(F)cccc3F)c2F)c(-c2ccnc(N)n2)s1` [Compound 8, desmethyl-Dabrafenib], in assay [1], the “rescue of CE defects, repeated experiments” value is “rescue CE defects; also recorded: consistent and significant rescue”; the “proportion of embryos showing CE defects vs vehicle (DMSO)” value is recorded as “decreased the proportion of embryos showing CE defects”. In addition, in the assay with rap1-CRISPR embryos, the “jaw length / MK-CH distance” value is “can be ameliorated; also recorded: restored significantly the jaw length of morphants and mutants to nearly wild type levels”.
